Here are results for 1 compound from patent publication US10314854B2, “Methods for treating tumors in situ including intratumor injection of cytotoxic particles and immune checkpoint blockade therapy” (University of Iowa Research Foundation, priority 2015, dated 2019).

In data set [1] the test system is A20 cells. The data set is described as follows: MTS viability assay, A20 (Example 1). To be noted: Mus musculus, 4.5 μg/mL Dox, MPs 4:1 loading, read-out: viable A20. It is filed as cell-based, murine. How it is done:
The A20 cell line (a BALB/c B cell lymphoma) and the EL4 cell line (a C57BL/6 T cell lymphoma) were purchased from ATCC (Manassas, Va.). Tumor cells were cultured in RPMI-1640 medium (Gibco, Carlsbad, Calif.) supplemented with 10% heat-inactivated FCS (HyClone, Logan, Utah), 100 U/mL penicillin, 100 μg/mL streptomycin, and 50 μM 2-ME (All from Gibco), as complete medium.
To determine the cytotoxic activity of MPs against A20 and EL4, the 3-(4,5 dimethylthiazol-2-yl)-5-(3-carboxymethoxyphenyl-2-(4-sulfophenyl)-2H-tetrazolium (MTS) assay for viability was conducted using CellTiter 96® AQueous Non-Radioactive Cell Proliferation Assay (Promega, Madison, Wis.). Five thousand A20 and EL4 cells were separately incubated with soluble Dox or Dox/CpG MPs (4:1 loading) in 96-well plates for 24, 48, and 72 h (four wells per group) at a final Dox concentration of 4.5 μg/mL. Media or blank MPs at equivalent weights were used as negative controls. The MTS/PMS reagent was then added for 4 h at 37° C. […] Absorbance was read at 490 nm using Thermomax Microplate Reader (Molecular Devices, Sunnyvale, Calif.). […] Viability was assessed as before.
Percent survival was expressed as the ratio of absorbance of treated cells relative to that of untreated cells in media group (after subtracting the absorbance of the blank from each) multiplied by 100. […]
(In general: Formazan colour is commonly taken as a measure of viable cells.)

Data set [2] concerns A20 cells. The data set is described as follows: MTS viability assay, A20 (Example 2). Type of data set: cell-based, murine. The procedure:
(§1) The MTS assay for viability was used to determine the cytotoxic activity of Dox MPs against A20 and DCs (Promega, Madison, Wis.). Briefly, 5×10^3 A20 cells or DCs were incubated with Dox MPs (8 μg/mg) for 24, 48 or 72 h (4 wells per group) at a range of Dox concentrations. Blank MPs were used as negative controls. MTS was added for 4 h at 37° C. Following centrifugation, 90 μl of supernatant was removed. Absorbance was read at 490 nm using a Thermomax Microplate Reader (Molecular Devices, Sunnyvale, Calif.).

The test system of another data set is bone-marrow-derived DCs. The data set can be described thus: MTS viability assay, DCs (Example 2). The note with it: 24 h; 1.125 μg/mL Dox; FIG. 8B. Type of data set: cell-based, BALB/c mice. How it is done: To generate murine bone-marrow-derived DCs, bone marrow cells were flushed from tibias and femurs of BALB/c mice, and mononuclear cells isolated using Ficoll gradient separation (Fico/Lite-LM, Atlanta Biologicals, Flowery Branch, Ga.). Cells were cultured in medium supplemented with 20 ng/mL each GM-CSF and IL4 (PeproTech, Rocky Hill, N.J.) for 7 days. Non-adherent cells were harvested. Cells were >70% DCs as determined by CD11c staining.
as §1

In data set [3] the test system is A20 cells phagocytosed by DCs. The data set can be described thus: Phagocytosis assay of A20 by DCs. It is filed as cell-based, murine. To be noted: A20 treated 48 h, co-incubated with DCs 1:1 for 2 h. How it is done:
A20 phagocytosis was quantified using A20 cells labeled with CellTrace Violet (Invitrogen, Carlsbad, Calif.). Labeled A20 were left untreated or treated with Dox MPs for 48 h (3 wells per group) at various concentrations. Controls included soluble Dox (at the same concentrations) and blank MPs (at equivalent weights). Treated A20 were washed and co-incubated with DCs at a 1:1 ratio for 2 h, stained with anti-CD11c-APC-Cy7 (BD), and analyzed by flow cytometry. The percentage of double-positive cells (CD11c and CellTrace Violet) was determined.

For data set [4] the following is noted: lymphoma patients; 30 mg/m^2 Dox; cited from earlier work.

Read-outs that look alike come from different tables or passages of the source.

`COc1cccc2c1C(=O)c1c(O)c3c(c(O)c1C2=O)C[C@@](O)(C(=O)CO)C[C@@H]3O[C@H]1C[C@H](N)[C@H](O)[C@H](C)O1` [soluble Dox, Doxorubicin]: the viability at 4.5 µg/mL in the data set on A20 cells [1] (A20, 24 h, day 1) amounted to 26%; in the data set with A20 cells [1] (A20, 48 h, day 2) it was 4%. In addition, the “survival of A20” value in the data set with A20 cells [2] (24 h, 1.125 μg/mL Dox, FIG. 8B comparison with DCs) is 26%. For the same compound, in the data set on A20 cells [2] (Mus musculus, A20, Day 1 (24 h), 0.5625 μg/mL Dox, FIG. 8A), the viability at 0.5625 µg/mL came out at 87%. Moreover, the viability at 1.125 µg/mL with A20 cells [2] (Mus musculus, A20, Day 1 (24 h), 1.125 μg/mL Dox, FIG. 8A) stood at 46%; with A20 cells [2] (Mus musculus, A20, Day 2 (48 h), 1.125 μg/mL Dox), 5%. The “survival of DCs” value in the data set on bone-marrow-derived DCs is 19%. In addition, the “phagocytosis of A20 tumor cells by DCs” value in data set [3] is “enhanced phagocytosis of A20 cells”. Further, in data set [4], the peak plasma concentration is reported as 278 ng/mL.
